Assay: UV absorbing power (E1% 1 cm)
Type: physicochemical
Conditions: at the λmax printed in Table 1 (290 nm or 305 nm)
Text: Fatty acids of Tung seed oil have good UV absorbing power as is evident from its conjugated system and from its E1% 1 cm of 1600 at 270 nm and 360 at 290 nm. These UV absorbing fatty acids can not only protect the ingredients of the formulations but also the skin and hair from the ravages of solar radiation when the formulations are applied. […] UV B radiation of solar spectrum is the most damaging since it causes skin cancer.
Both homosalate and Octyl salicylates are popular sunscreen molecules all over the world.

- E1 %: 180
Structure (SMILES): CC1CC(OC(=O)c2ccccc2O)CC(C)(C)C1 (stereo not shown) [Homosalate (118-56-9), Homosalate]
